Experimental findings from patent publication US20180344680A1, “COMPOSITIONS AND METHODS FOR TREATMENT, AMELIORATION, AND PREVENTION OF DIABETES-RELATED SKIN ULCERS” (THE ARIZONA BOARD OF REGENTS ON BEHALF OF THE UNIVERSITY OF …, priority 2015, published 2018) are described below.

SMILES strings stand for the structures.

Assay [1] deals with wounds of STZ-induced diabetic Nrf2+/+ mice. In words: Wound closure in STZ-induced diabetic mouse model. The format is in vivo. The conditions noted are these: for wound closure / diameter of granulation tissue between the flanking hair follicles: STZ mice; for wound closure: 12.5 mg/kg SF or 50 mg/kg CA i.p. every other day, up to 14 days after wound surgery, vs untreated STZ; for diameter of granulation tissue between the flanking hair follicles: day 14 post-surgery, histological examination. An excerpt:
Diabetes mouse model and treatments. Nrf2^+/+ and Nrf2^-/- C57BL/6 mice were described previously (see, e.g., Jiang T, et al., Diabetes 59:850-860, 2010) and were housed and handled in accordance with the University of Arizona Institutional Animal Care policies. The STZ-induced diabetic model was previously described (see, e.g., Zheng H, et al., Diabetes 60:3055-3066, 2011) and only 8 week old male mice were included in this study. Briefly, three weeks after STZ injections, fasting glucose levels (FGL, 4 h fast) were measured using the AlphaTRAK system (Abbott Laboratory, North Chicago, Ill.) and mice with a FGL higher than or equal to 250 mg/dL were considered diabetic and included in the study (see, e.g., FIG. 2A and FIG. 3A for a detailed timeline). The mice (n=5-8) were then allocated randomly to each of the indicated treatment groups and received corn oil (control), 12.5 mg/kg SF or 50 mg/kg CA intraperitoneally every two days until skin tissues were harvested. One week after the treatments, the mice were anesthetized, their backs were shaved and cleaned. Two wounds were made with a sterile 6 mm skin biopsy punch (Health link, Jacksonville, Fla.) and covered with 3M Tegaderm pads. The wounds were photographed using an in vivo imaging system and an infrared integrated system ([…], Northampton, UK) for 14 days. Gross wound closure was quantified by ImageJ software, and wound healing was expressed as the percentage of the original wound area that had healed. The tissues were collected using an 8 mm skin biopsy punch; one half was fixed in 10% buffered formalin and embedded in paraffin while the other half was used for protein extraction. For the experiments in non-diabetic mice (FIG. 9), mice were injected with sodium citrate buffer and randomly allocated to the treatment groups (n=3-5). Wounds and tissue collection were performed as described above.

The next assay deals with TGF-β1. Put plainly: TGF-β1 expression in wound skin tissues of STZ mice (immunoblot, IHC). The format is in vivo, mouse. The note with it: immunoblot and IHC, day 14. An excerpt:
Diabetes mouse model and treatments. Nrf2^+/+ and Nrf2^-/- C57BL/6 mice were described previously (see, e.g., Jiang T, et al., Diabetes 59:850-860, 2010) and were housed and handled in accordance with the University of Arizona Institutional Animal Care policies. The STZ-induced diabetic model was previously described (see, e.g., Zheng H, et al., Diabetes 60:3055-3066, 2011) and only 8 week old male mice were included in this study. Briefly, three weeks after STZ injections, fasting glucose levels (FGL, 4 h fast) were measured using the AlphaTRAK system (Abbott Laboratory, North Chicago, Ill.) and mice with a FGL higher than or equal to 250 mg/dL were considered diabetic and included in the study (see, e.g., FIG. 2A and FIG. 3A for a detailed timeline). […] Gross wound closure was quantified by ImageJ software, and wound healing was expressed as the percentage of the original wound area that had healed. […] Morphology was assessed by hematoxylin and eosin (H&E) staining (Vector laboratory, Burlingame, Calif.). […] Protein concentration was measured using Quant-iT Protein Assay (Invitrogen) and 150 μg of protein were resolved by SDS-PAGE and immunoblotting analyses with the indicated antibodies.
In general terms: Immunoblotting shows a protein as a band on a membrane.

Take `C[S@@+]([O-])CCCCN=C=S` [SF, L-sulforaphane]: in assay [1], the wound closure result is “accelerated wound closure” and the “diameter of granulation tissue between the flanking hair follicles” value is given as “markedly reduced”. Moreover, the “wound closure compared with non-diabetic Con mice” value in assay [1] (STZ+SF mice, during the first 7 days) is on record as “even faster than that of the Con mice”. Also, the TGF-β1 expression entry with TGF-β1 is recorded as “restored to levels comparable to that of Con mice”.

`O=CC=Cc1ccccc1` [CA, Cinnamaldehyde]: in assay [1], the wound closure entry was “accelerated wound closure” and the “diameter of granulation tissue between the flanking hair follicles” value is listed as “markedly reduced”. Further, the TGF-β1 expression result in the assay with TGF-β1 was “restored to levels comparable to that of Con mice”.
